# Test results taken from patent publication US20260090983A1, “PARENTERAL NUTRITION FORMULATION” (Baxter International Inc., priority 2018, published 2026).
# “Also recorded” adds a separate entry of the source. Where two headings read alike, the source gives them in different places.
# What was measured:
# [1] = test system: male Sprague-Dawley rats with steatosis, induced by choline and methionine deficient (MCD) diet; assay: Aminotransferase (ALT) activity in plasma during parenteral nutrition; format: in vivo; conditions: for development of ALT activity from day 5 to day 17 (FIG. 2): Step #2, LE 10% without or with choline derivative "high" 31 mmol/L, plasma after 5 and 17 days of parenteral nutrition
# Description: ALT activity is determined by a modification recommended by the International Federation of Clinical Chemistry (IFCC), see also Example 2. ALT catalyzes the reaction of alpha-ketoglutarate with L-alanine to form L-glutamate and pyruvate. Under the action of LDH, pyruvate converts to lactate, and NADH is converted to NAD. The decrease in absorbance of NADH, measured at 340 nm (secondary wavelength is 700 nm), is directly proportional to the serum activity of ALT. It is a kinetic reaction. In general, serum is used for analysis. The serum is separated from the cells within 2 hours of collection and stored at -70° C. until assayed. Monitoring the ALT activity over time in an animal model is used herein as one straightforward and conclusive way to determine the efficacy of GPC in treating liver disease, specifically liver damage caused by a choline-deficient diet (Examples 1 and 2, FIGS. 2 and 3). The effects of GPC as well as of the combination of DHA, ARA and GPC were investigated in a sick animal model, wherein male Sprague-Dawley rats with steatosis, induced by choline and methionine deficient (MCD) diet (S SNIFF MCD pelleted choline/methionine deficient diet (SSNIFF Spezialdiäten GmbH, Soest, Germany, Product No. E15653-94)) were kept on parenteral nutrition. Steatosis was confirmed in the respective groups by histopathology (Example 3). Parenteral nutrition started after 14 days under MCD diet. First measurements were done after 5 days of parenteral nutrition, followed by measurements after 9 and 17 days. The daily lipid uptake was 2.31 g/kg/d. The rats were split into several groups as set forth below in Table I. Two groups served as control groups, wherein a first group was treated with saline solution (0.90% w/v of NaCl in water for injection). A second group received a lipid emulsion (“LE 10%”) containing refined olive oil (80.0 g/L) and refined soybean oil (20.0 g/L) in water for injection, pH 6-8; LE 10% further contained egg lecithin (6.0 g/L), glycerol (11.25 g/L) and sodium oleate (0.15 g/L). LE 10% contained 100 g/L lipids. […] CDP-choline (prepared by fermentation) was from TCI Europe N.V. (Antwerp, Belgium). […] DHA (from algae, Schizochytrium sp.) and ARA (from fungi, Mortierella alpina) were purchased from BASF AG, Germany. Vitamin E was purchased from […].) […] As described before, liver damage (cholestasis) may be determined by increased aminotransferase levels. ALT activity was determined with an AD VIA 1800 blood biochemistry analyzer/IFCC modified (SIEMENS®) according to standard protocols such as described before.
# [2] = test system: male Sprague-Dawley rats with steatosis, induced by choline and methionine deficient (MCD) diet; assay: Histopathological grading of hepatocellular vacuolation of the liver; format: in vivo; conditions: for histopathological examination of the liver, vacuolation (FIG. 4A): Step #2
# Description: A part of the liver was preserved in buffered formalin, the infusion sites and the sampled macroscopic lesions were trimmed according to the RITA guidelines, where applicable (Ruchl-Fehlert et al., Exp Toxic Pathol 2003; 5 5, 91-106), embedded in paraffin wax, sectioned at a thickness of approximately four microns and stained with hematoxylin-eosin. The frozen liver sample was cryosectioned in slides of approximately five microns and stained by Oil Red O. Tissue processing was performed at Citoxlab, France.
# A microscopic examination was performed on both slides (hematoxylin eosin and Oil Red O) of the liver, the infusion sites and the macroscopic lesions from all animals of the study. Peer review was performed on at least 30% of the animals from the high-dose group and on an adequate number of slides from identified target organs to confirm that findings recorded by the Study Pathologist were consistent and accurate.
# Liver samples taken after 8 and 15 days, respectively, were examined as described above and assigned to five grades of hepatocellular vacuolation. Vacuolation was generally diffuse and affected all regions for Grade 5. Periportal areas were lesser affected and the vacuoles were smaller in size for lower grades. Grades have been assigned according to the following definition:
# [3] = test system: male Sprague-Dawley rats with steatosis, induced by choline and methionine deficient (MCD) diet; assay: Development of liver weight versus body weight; format: in vivo; conditions: LE 10% without or with choline derivative "high": 31 mmol/L
# Source text: The effects of GPC as well as of the combination of DHA, ARA and GPC were investigated in a sick animal model, wherein male Sprague-Dawley rats with steatosis, induced by choline and methionine deficient (MCD) diet (S SNIFF MCD pelleted choline/methionine deficient diet (SSNIFF Spezialdiäten GmbH, Soest, Germany, Product No. E15653-94)) were kept on parenteral nutrition.
# Parenteral nutrition started after 14 days under MCD diet. First measurements were done after 5 days of parenteral nutrition, followed by measurements after 9 and 17 days. The daily lipid uptake was 2.31 g/kg/d. The rats were split into several groups as set forth below in Table I.
# The study groups as described in Example 1 were further evaluated with regard to the development of liver weight versus body weight. An increase in liver weight which is not proportional to the increase of body weight is typical for the development of liver damage, specifically steatosis, as described before.
# [4] = for Stability upon sterilization (Comment): heat sterilization; for stability of the lipid emulsions during sterilization (heat), in words: lipid emulsions prepared as in Example 1 containing the choline derivative
# Description: The choline derivative supplemented “LE” lipid emulsions were prepared as follows. In a first step, raw phases are heated up. In case of the oil phase, soybean and olive oils and egg phosphatide as well as DHA and ARA oils and vitamin E in case of Step #3 experiments are heated in an inox beaker to 75° C. under N2 protection while continuously agitating using an ULTRA TURRAX®. The aqueous phase was prepared by mixing glycerol, sodium oleate and Milli-Q water and constantly heated in an inox beaker to about 75° C. under N2 protection. Where needed, the choline derivative is added under constant agitation. In a second step, the pre-emulsion is prepared by adding the oily phase to the aqueous phase using a peristaltic pump under continuous agitation and then transferred to a high shear inline disperser (e.g. DISPAX REACTOR® DR). The receiving vessel is closed and flushed with nitrogen. In a third step the pre-emulsion is homogenized by passing it several times through a high-pressure homogenizer at 600 bar and a temperature of about 50° C., under a N2 atmosphere.
# The emulsion is then adjusted to the required volume (2 L) with Milli-Q water and cooled down to a temperature of approximately 18 to 28° C., preferably 20° C. to 25° C. The pH is adjusted to a range of from 7.8 to 8.8, preferably to about 8.3 to 8.8 with 0.IN NaOH. The emulsion is filtered with a 4.5 μm filter and transferred in 100 mL bags, which are then overpouched, making use of an oxygen absorber/indicator, for later use. The lipid emulsion is then autoclaved at 121° C. to achieve a F0 of at least 15 minutes.
# [5] = LE 10% with choline derivative alone (no DHA, ARA), high (31 mmol/L) and low (15 mmol/L) concentration
Compound,development of ALT activity from day 5 to day 17 (FIG. 2) [1],"histopathological examination of the liver, vacuolation (FIG. 4A) ([2]; LE 10% with choline derivative alone, low concentration, 15 mmol/L)",liver to body weight ratio in percent (FIG. 5) [3],"Stability upon sterilization (Comment) ([4]; Concentration 30 mmol/L, lipid emulsion tested LE 10 %)","stability of the lipid emulsions during sterilization (heat), in words [4]","histopathological examination of the liver, vacuolation (FIG. 4A) [2, 5]","Stability upon sterilization (Comment) ([4]; Concentration 15 mmol/L, lipid emulsions tested LE 10, 13, 20 %)","liver status of the animal, in words ([2]; After 15 days into parenteral nutrition, Step #3, LE 13%, versus saline solution)","Vacuolation; hepatocellular, Grade 2, number of animals ([2]; Day 8, Step #3, phytosterol depleted LE 13%, GPC 40 mmol/L where present, 5 animals per group, Grade 2 = slight/few/small vacuoles)","Vacuolation; hepatocellular, Grade 3, number of animals ([2]; Day 8, Step #3, phytosterol depleted LE 13%, GPC 40 mmol/L where present, 5 animals per group, Grade 3 = moderate vacuoles)","Vacuolation; hepatocellular, Grade 4, number of animals ([2]; Day 8, Step #3, phytosterol depleted LE 13%, GPC 40 mmol/L where present, 5 animals per group, Grade 4 = marked/many/large vacuoles)","Vacuolation; hepatocellular, Grade 5, number of animals ([2]; Day 8, Step #3, phytosterol depleted LE 13%, GPC 40 mmol/L where present, 5 animals per group, Grade 5 = severe, diffuse, all liver regions)","Stability upon sterilization (Comment) ([4]; Concentration 30 mmol/L, lipid emulsions tested LE 10, 20 %)","ALT activity, change in percent of the normal value for plasma (FIG. 3) ([1]; Step #3, LE 10% normal phytosterol without GPC, LE 10% + GPC 40 mmol/L, LE 13% reduced phytosterol + GPC 40 mmol/L)"
"C[N+](C)(C)CCOP(=O)(O)OP(=O)([O-])OC[C@H]1O[C@@H](n2ccc(N)nc2=O)[C@H](O)[C@@H]1O [CDP-choline, cytidine diphosphate-choline, reference compound]",neither significantly increases or decreases,also had an effect,reduction of the ratio,Phase separation,phase separation of the lipid emulsions during sterilization,,,,,,,,,
"C[N+](C)(C)CCO.[Cl-] [Choline Chloride, (2-Hydroxyethyl)trimethylammonium chloride, reference compound]",neither significantly increases or decreases,,reduction of the ratio,,phase separation of the lipid emulsions during sterilization,fared better than those with only saline or lipid emulsion without any choline derivative,Phase separation,,,,,,,
"C[N+](C)(C)CCOP(=O)([O-])OC[C@H](O)CO [GPC, glycerophosphocholine]",clear drop in ALT activity; also recorded: most pronounced,,most pronounced reduction of the ratio,,remained stable,most significant impact; also recorded: significantly better,,clear and significant improvement of the liver status,one,one,Three,none,Stable emulsion,
phosphatidylcholine,does not seem to have any effect,,does not seem to have any effect,,,,,,,,,,,does not seem to have any effect
